Laboratory results published in PubChem BioAssay AID463204 (Broad Institute, 2010).
Calls of active or inactive are those of the source.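 How the source made its calls: active means AC50 no more than ten times the top concentration tested, that is within one log above it; inconclusive means flat curve fit with activity between 30% and 70%, or invalid poor fit; inactive means AC50 beyond ten times the top tested dose.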

System: S. cerevisiae Mot1-301 ts growth rescue, BacTiter-Glo ATP luminescence
Assay: growth rescue of Mot1-301 ts yeast, confirmation, SUMOylation pathway inhibitor project, whole organism, S. cerevisiae, Mot1-301 ts mutant, luminescence, dose retest (AID 463204);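 further: growth at restrictive 38.5 degrees C of Mot1-301 OY566 strain; actives raise luminescence by restoring growth of the ts mutant at high temperature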

Structure (SMILES)	AC50
CC(C)N(C(=S)Nc1cccc(S(=O)(=O)N(C)C)c1)c1ccccc1	> 42 µM (inactive)
CC(C(=O)N1CCN(C(=O)c2ccco2)CC1)n1sc2ccccc2c1=O (stereo not given)	> 42 µM (inactive)
CC(C)CCn1c(C(C)O)nc2ccccc21 (stereo not given)	> 42 µM (inactive)
CC(=O)Nc1cccc(OCC(O)Cn2c(C)nc3ccccc32)c1 (stereo not given)	> 42 µM (inactive)
CC(C)NC(=O)NC(=O)COC(=O)CCCSc1nc2ccccc2s1	> 42 µM (inactive)
CCC(c1nc2ccccc2c(=O)n1-c1nc2ccccc2s1)N1C(=O)c2ccccc2C1=O (stereo not given)	> 42 µM (inactive)
O=C(N/N=C/c1cccc([N+](=O)[O-])c1)C1COc2ccccc2O1 (stereo not given)	> 42 µM (inactive)
C=C(C)C(=O)OC1(C(F)(F)F)Oc2cc(C)ccc2NC1=O (stereo not given)	4.67 µM
CCCNCc1cc(OCC)c(OCC(N)=O)cc1Br	> 42 µM (inactive)
COc1cc(SC)ccc1C(=O)N1CCCCCC1	> 42 µM (inactive)
c1ccc2c(c1)OCCOCCOc1ccccc1OCCOCCO2	> 42 µM (inactive)
C=CCn1c(=N)c(C(=O)NCCCOC)cc2c(=O)n3ccccc3nc21	> 42 µM (inactive)
COc1cc2c(cc1OC)C(c1ccccc1[N+](=O)[O-])N(C(C)=O)CC2 (stereo not given)	> 42 µM (inactive)
CC(NC(=O)C1CCCN(S(=O)(=O)N2CCOCC2)C1)c1ccccc1 (stereo not given)	> 42 µM (inactive)
CCNC(=O)C1CC(=O)N(Cc2ccc3c(c2)OCO3)C(=Nc2ccc(F)cc2)S1 (stereo not given)	> 42 µM (inactive)
COc1ccc(N(C(=O)c2ccncc2)S(=O)(=O)c2ccc(F)cc2)cc1	> 42 µM (inactive)
Cc1cc(Oc2cc(NN3CCCCC3)c([N+](=O)[O-])cc2[N+](=O)[O-])ccc1[N+](=O)[O-]	> 42 µM (inactive)
CN(C)c1ccc(NS(=O)(=O)c2cccc(Cl)c2)cc1	> 42 µM (inactive)
CSCC[C@H](NC(=O)CC(C)(C)C)c1nc2ccccc2[nH]1	> 42 µM (inactive)
O=C1CCCN1CCC(=O)N1CCCC(N2CCN(c3ccccc3F)CC2)C1 (stereo not given)	> 42 µM (inactive)
O=C(NC1CCc2ccccc21)c1cc(COc2ccc(F)cc2F)on1 (stereo not given)	> 42 µM (inactive)
O=C(N/N=C/C(Br)=C/c1ccccc1)c1cccnc1	21.5 µM
O=C(O)CC(NC(=O)OCc1ccccc1)c1ccc(Br)cc1 (stereo not given)	> 42 µM (inactive)
Cc1c(N=Cc2cc(Br)cc(Br)c2O)cccc1C(=O)O	3.14 µM
CC(C)C/C(=N/O)c1c[nH]c2ccccc12	> 42 µM (inactive)

Structure (SMILES)	AC50
CC1=C(C(N)=O)C(c2ccccn2)n2nc(SCc3ccccc3Cl)nc2N1 (stereo not given)	> 42 µM (inactive)
N#Cc1c(NC(=O)c2ccc([N+](=O)[O-])o2)sc2c1CCC2	40.1 µM
Cc1cc(-c2nnc3sc(C4CCCCC4)nn23)n[nH]1	> 42 µM (inactive)
CCOC(=O)c1c(C)n(C)c2cc(-c3ccc(C)cc3)c(O)cc12	> 42 µM (inactive)
COc1cccc(NC(=O)c2nn(C34CC5CC(CC(C5)C3)C4)cc2[N+](=O)[O-])c1	> 42 µM (inactive)
O=C(Nc1ccc2oc(-c3ccccc3F)nc2c1)c1ncn[nH]1	> 42 µM (inactive)
Cc1cccc(/C=N/NC(=O)Cc2cccs2)c1	> 42 µM (inactive)
Nc1nnc(CC(=O)N2CCCCC2)s1	> 42 µM (inactive)
O=c1cc(-c2ccccc2)nc(N2CCN(Cc3ccccc3)CC2)[nH]1	> 42 µM (inactive)
Cc1cccc(C(=O)NCC(=O)N2CCN(c3ccc(Cl)cc3)CC2)c1	> 42 µM (inactive)
Cc1ccc(CC(=O)O/N=C(\N)c2cccc([N+](=O)[O-])c2)cc1	> 42 µM (inactive)
CCOc1ccc(NC(=O)Nc2ccc3nsnc3c2)cc1	> 42 µM (inactive)
N#CCCN(Cc1cccnc1)C(=O)Nc1cccc(Cl)c1	> 42 µM (inactive)
Cc1ccc(C(=O)/C=C/c2ccc(-c3ccccc3[N+](=O)[O-])o2)cc1	> 42 µM (inactive)
Cn1c(-c2ccc3c(c2)OCO3)cnc1NC(=O)CCC(=O)NCCc1ccccc1	> 42 µM (inactive)
Cc1ccccc1-c1nnc(SCc2ccc(F)cc2)o1	> 42 µM (inactive)
COc1ccc(C(=O)NCCSc2ccc(C)cc2)cc1	> 42 µM (inactive)
COc1ccc(/C=C(\C#N)C(=O)c2cccn2C)cc1	> 42 µM (inactive)
CCC(C)[C@H]1COCCS(=O)(=O)N1Cc1ccc(C)cc1 (stereo not given in full)	> 42 µM (inactive)
O=C(N/N=C/c1ccc(Cl)s1)c1ccccc1[N+](=O)[O-]	> 42 µM (inactive)
CC(C)C(=O)NNc1ccc(C(F)(F)F)cn1	> 42 µM (inactive)
CS(=O)(=O)N(CC(=O)Nc1ccccc1C(=O)N1CCCC1)c1ccc2c(c1)OCO2	> 42 µM (inactive)
O=C(CN(CC1CCCO1)C(=O)CNS(=O)(=O)c1ccc(F)cc1)NCc1ccccc1 (stereo not given)	> 42 µM (inactive)
Cc1n[nH]c(=O)nc1NCc1ccc(Cl)cc1	> 42 µM (inactive)
CC(C)c1cc(C(=O)N/N=C/C(Br)=C/c2ccccc2)n[nH]1	6.05 µM

Structure (SMILES)	AC50
COc1cc(C(=O)OCC(=O)NC(C)CCc2ccccc2)cc(OC)c1OC (stereo not given)	> 42 µM (inactive)
N#Cc1cc2c(nc1SCc1cccnc1)CCC2	> 42 µM (inactive)
COC(=O)C1CN(C(=O)C(C)Oc2ccc(F)cc2)c2ccccc2O1 (stereo not given)	> 42 µM (inactive)
CCCN1C(=O)c2ccccc2NC1c1ccc(C)cc1 (stereo not given)	> 42 µM (inactive)
COC(=O)c1sccc1NC(=O)CC1C(=O)NCCN1C(=O)Nc1ccc(F)cc1F (stereo not given)	> 42 µM (inactive)
Cc1[nH]c2ccccc2c1/C=N/NC(=O)c1cccc(Br)c1	> 42 µM (inactive)
O=S(=O)(NCc1ccc(Cl)cc1)c1cnc[nH]1	> 42 µM (inactive)
Cc1nc2ccc(NC(=O)c3ccc(S(=O)(=O)N4CCOCC4)cc3)cc2s1	> 42 µM (inactive)
CCOc1ccc(S(=O)(=O)N2CCN(CC(O)COc3cccc([N+](=O)[O-])c3)CC2)cc1 (stereo not given)	> 42 µM (inactive)
O=C(CN1CCN(c2nc(-c3ccccc3)cs2)CC1)NNC(=O)c1ccc(Br)cc1	> 42 µM (inactive)
COc1ccccc1/C=C/C(=O)c1c2c(c(C)[nH]c1=O)CCCC2	> 42 µM (inactive)
Cc1ccc(NC(=S)N2CCN(Cc3ccc4c(c3)OCO4)CC2)c(C)c1	> 42 µM (inactive)
CC(C)(C)NC(=O)CC1C(=O)NCCN1Cc1c(F)cccc1Cl (stereo not given)	> 42 µM (inactive)
Cc1ccc(C(=O)NC(NC(=O)c2ccc(C)cc2)C(Cl)Cl)cc1	> 42 µM (inactive)
CCOc1ccccc1CN1CCNC(=O)C1CC(=O)NCCN1CCOC1=O (stereo not given)	> 42 µM (inactive)
Nc1nc(CSc2nnnn2-c2ccc(Cl)cc2)nc(N2CCOCC2)n1	> 42 µM (inactive)
Cc1ccc(S(=O)(=O)n2cccc2C)cc1	> 42 µM (inactive)
CCOC(=O)C1=Nc2ccccc2C1=[N+]=[N-]	36.7 µM
Cc1nc(CC(=O)N/N=C/c2ccc(OCC(=O)O)cc2)cs1	> 42 µM (inactive)
N#CCN(N=Nc1ccccc1)c1ccccc1	> 42 µM (inactive)
Cc1nnc(NC(=O)c2ccc(-c3cccc(C(F)(F)F)c3)o2)s1	> 42 µM (inactive)
O=C(CCC(=O)OCC(=O)c1ccc(Br)cc1)Nc1cccc2cccnc12	> 42 µM (inactive)
CNC(=O)c1ccccc1NC(=O)c1c(O)c2c([nH]c1=O)CCCC2	> 42 µM (inactive)
C=CCN1C(=O)/C(=C2/Sc3ccc(OC)cc3N2C)SC1=Nc1ccccc1	> 42 µM (inactive)
CC[n+]1c(/C=C/N(C)c2ccccc2)n(-c2ccccc2)c2ccc(-c3nc4ccccc4s3)cc21	19.6 µM

Structure (SMILES)	AC50
COC(=O)C1(Cc2ccc(O)cc2)OC(=O)C(O)=C1c1ccc(O)cc1 (stereo not given)	> 42 µM (inactive)
CC1(C)CC(=O)C=C(OC(=O)c2ccc(Cl)cc2)C1	> 42 µM (inactive)
CC(C)CCOCc1nc2sc3c(c2c(=O)[nH]1)CCC(C)C3 (stereo not given)	> 42 µM (inactive)
O=C(Nc1nnc(-c2ccco2)o1)c1ccc(S(=O)(=O)N2CCCC2)cc1	> 42 µM (inactive)
Cc1ccc(Oc2ccc(OCC(=O)Nc3ccncc3)cc2)cc1	23.5 µM
O=C(c1ccc2c(=O)n(Cc3ccccc3Cl)c(=S)[nH]c2c1)N1CCOCC1	> 42 µM (inactive)
O=[N+]([O-])c1ccccc1CN1CC=C(c2ccc(F)cc2)CC1	> 42 µM (inactive)
Nc1ccc(C2(c3ccc(N)cc3)OC(=O)c3ccccc32)cc1	> 42 µM (inactive)
O=C(COC(=O)c1cc([N+](=O)[O-])ccc1N1CCOCC1)Nc1cccc(F)c1	> 42 µM (inactive)
Cc1cc(C)n(C(=O)CNC(=O)c2ccc3c(c2)OCCO3)n1	> 42 µM (inactive)
CC(=O)Nc1sc2c(c1C(c1ccc(F)cc1)N1CCOCC1)CCCC2 (stereo not given)	11.8 µM
O=C(Nc1ccc(S(=O)(=O)NC2=NCCCCC2)cc1)c1ccc(C(F)(F)F)cc1	> 42 µM (inactive)
CC(C)(C)C(=O)NC1CCN(CC(=O)Nc2ccc3c(c2)OCO3)CC1	> 42 µM (inactive)
O=C(NC1CCCCC1)C(c1ccncc1)N(Cc1ccc2c(c1)OCO2)C(=O)C(F)(F)F (stereo not given)	> 42 µM (inactive)
Cc1ccc(C2C(C(=O)c3cccs3)=C(O)C(=O)N2c2ccc(S(N)(=O)=O)cc2)cc1 (stereo not given)	> 42 µM (inactive)
COc1ccc(N(C(=O)c2ccco2)C(C(=O)NC2CCCCC2)c2ccccc2)cc1 (stereo not given)	> 42 µM (inactive)
O=C(NNC(=O)c1ccc(-n2cncn2)c([N+](=O)[O-])c1)c1ccc(Cl)cc1	> 42 µM (inactive)
CCn1nnc(-c2ccccc2NC(=O)c2cnccn2)n1	> 42 µM (inactive)
CC(C)C(CC(=O)NCc1ccco1)c1ccco1 (stereo not given)	> 42 µM (inactive)
CCOc1ccc(CCNC(=O)COC(=O)COc2ccc(C(C)=O)cc2)cc1OCC	> 42 µM (inactive)
Cc1ccc(-c2csc(NC(=O)CSc3nc(C)cs3)n2)cc1	> 42 µM (inactive)
CCc1cc2c(=O)c(-c3nc4ccccc4[nH]3)coc2c(CN2CCCCC2)c1O	> 42 µM (inactive)
N#C/C(=C\c1cn(-c2ccccc2)nc1-c1cccnc1)c1nnc2n1CCCCC2	> 42 µM (inactive)
COc1ccc(-c2cc(CC3(C(=O)O)CCN(C(=O)OC(C)(C)C)CC3)on2)c(OC)c1	> 42 µM (inactive)
COCCn1c(SCC(=O)NCc2cccs2)nnc1-c1ccc(OC)cc1	> 42 µM (inactive)
